Measurements reported in a compilation of properties of binary mixtures (doi:10.1021/ie303238h).

Experiment: xn = mol fraction of the nth substance listed
Conditions: 298.15 K, 100 kPa

| SMILES | viscosity (x1 = 1) [mPa·s] | viscosity (x1 = 0.2008) [mPa·s] | viscosity (x1 = 0.4356) [mPa·s] | viscosity (x1 = 0.494) [mPa·s] | viscosity (x1 = 0.5982) [mPa·s] | viscosity (x1 = 0.6996) [mPa·s] | viscosity (x1 = 0.8) [mPa·s] | viscosity (x1 = 0.9025) [mPa·s] | viscosity (x2 = 0.1009) [mPa·s] | viscosity (x2 = 0.2031) [mPa·s] | viscosity (x2 = 0.2951) [mPa·s] | viscosity (x2 = 0.4027) [mPa·s] | viscosity (x2 = 0.5989) [mPa·s] | viscosity (x2 = 0.8024) [mPa·s] | viscosity (x2 = 0.8996) [mPa·s] |
| --- | --- | --- | --- | --- | --- | --- | --- | --- | --- | --- | --- | --- | --- | --- | --- |
| CC[n+]1ccn(C)c1.O=S(=O)([N-]S(=O)(=O)C(F)(F)F)C(F)(F)F + CCCC[n+]1ccn(C)c1.CCOS(=O)(=O)[O-] | 32.55 | – | – | – | – | – | – | – | – | – | – | – | – | – | – |
| CC[n+]1ccn(C)c1.O=S(=O)([N-]S(=O)(=O)C(F)(F)F)C(F)(F)F + CCOS(=O)(=O)[O-].CC[n+]1ccn(C)c1 | 32.55 | 90.6 | 72.5 | 67.8 | 58.31 | 50.07 | 43.24 | 37.67 | – | – | – | – | – | – | – |
| CCCC[n+]1ccn(C)c1.CCOS(=O)(=O)[O-] + CC[n+]1ccn(C)c1.O=S(=O)([N-]S(=O)(=O)C(F)(F)F)C(F)(F)F | – | – | – | – | – | – | – | – | 212.4 | 172.4 | 139.9 | 109.3 | 69.7 | 47.55 | 39.59 |
